Like-named read-outs stand apart in the source and are kept apart here.

What all share (format): cell-based
One assay addresses T1, M2 muscarinic receptor (Homo sapiens, UniProt P08172).
T1 construct: expressed in transfected cells; host or cells: CHO (M2-CHO)
T1 sequence (P08172 1-466): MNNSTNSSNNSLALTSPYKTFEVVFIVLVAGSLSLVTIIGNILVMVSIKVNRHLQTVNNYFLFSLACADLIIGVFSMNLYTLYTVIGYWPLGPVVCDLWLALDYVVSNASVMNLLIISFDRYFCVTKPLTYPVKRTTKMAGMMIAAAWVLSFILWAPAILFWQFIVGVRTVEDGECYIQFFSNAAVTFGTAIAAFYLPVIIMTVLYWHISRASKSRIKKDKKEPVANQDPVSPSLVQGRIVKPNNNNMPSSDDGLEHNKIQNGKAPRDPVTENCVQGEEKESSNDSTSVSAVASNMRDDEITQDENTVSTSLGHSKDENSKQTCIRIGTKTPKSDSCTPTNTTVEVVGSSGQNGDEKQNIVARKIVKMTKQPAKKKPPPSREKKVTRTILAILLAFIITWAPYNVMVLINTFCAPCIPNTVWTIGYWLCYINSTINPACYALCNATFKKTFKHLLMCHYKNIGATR
The assay can be described thus: Functional mobilization of intracellular calcium (FLIPR) in CHO cells expressing M2. To be noted: for EC50: CHO cells expressing M2, FLIPR calcium; for Emax: CHO; for M2 Activity: CHO cells expressing M2, FLIPR calcium assay. As for the experimental part: (§1) Functional Mobilization of Intracellular Calcium to Determine Muscarinic Receptor Activity:
(§2) CHO cells expressing muscarinic receptors (M1 to M5) are grown as monolayers in tissue culture flasks at 37° C. in a humidified atmosphere containing 5% CO2 and passaged every 3-5 days. The growth media is Dulbecco's modified eagles medium (DMEM, Gibco Cat# 12430-054), containing 25 mM Hepes and supplemented with Fetal Bovine Serum (Hyclone, cat# SH30071.03), 0.1 mM of MEM non-essential amino acids (GIBCO, Cat# 11140-050), 1 mM MEM Sodium Pyruvate (GIBCO Cat# 11360-070) and 100 units/ml of Penicillin G and 100 μg/ml of Streptomycin (GIBCO Cat# 15140-122). The recombinant muscarinic receptor cell lines are grown under antibiotic pressure with media containing 25 μg/ml zeocin and 500 μg/ml G418 (M1-CHO), 4 μg/ml puromycin, 50 μg/ml zeocin and 2.5 μg/ml blasticidin (M2 and M4-CHO) or 50 μg/ml zeocin and 4 μg/ml puromycin (M3 and M5-CHO).
(§3) Cells are harvested at 80-90% confluence using Versene (GIBCO Cat# 15040-066), collected by centrifugation and seeded 18-24 hrs prior to running the calcium assay at a density of 5,000-10,000 cells/well in […], clear-bottomed 384-well plates (BD Biocoat, poly-D-lysine, Cat#356663). The day of the experiment, the cells are washed with a plate washer (Bioteck Instruments, ELX 405) using bath 1 buffer (140 mM NaCl, 4,5 mM KCl, 2 mM CaCl2, 1 mM MgCl2, 10 mM Hepes-Na, 10 mM Glucose, pH 7.4, with NaOH) containing 1 mM Probenecid. Next, the calcium dye Fluo-3 (25 μl/well of Fluo-3 AM at 4 μM, Molecular Probes F-1241, in Bath 1 buffer containing 1 mM Probenecid) is added to the 25 μl of Bath 1 remaining in each well after the plate wash and the dye is loaded at 37° C. in the tissue culture incubator for 60-90 min. The fluorescent dye is removed using the plate washer with Bath 1 containing 1 mM Probenecid, leaving 25 μl/well of this solution after the wash. Alternatively, cells can be loaded with the calcium indicator from Molecular Devices (Calcium 3 Assay Reagents, Cat #R7181) adding 5 μl of a 5× solution dye in Bath 1 containing 1 mM Probenecid (10 ml per dye flask cat#R7182 to generate a solution […]) to 20 μl of the same buffer. After loading for 60 min, the experiment can be run without having to remove the dye.
(§4) Compounds are prepared at a 2× fold concentration in a 96-well plate (round bottom, Costar Corning cat#3656), by reconstituting the pre-spotted compounds in bath 1 containing 1 mM probenecid. The final concentration DMSO is 0.5%, and the amount of DMSO is normalized across the assay plate. To determine an agonist action of the compounds on muscarinic receptors, the reconstituted compounds are added (25 μl compound/well) to the cell assay plate (containing 25 μl/well) using the multi-channel robotic system of the FLIPR 3 Instrument (Molecular Devices, Sunnyvale, Calif.). To determine a functional inhibitory action of the compounds on muscarinic receptors, the reconstituted compounds are added (25 μl compound/well) to the assay plate and pre-incubated for 15 min prior to adding 25 μl of Carbachol at 3× the EC80 for each muscarinic subtype. Alternatively, the compounds can be co-applied simultaneously with the agonist. In both assay modes, the fluorescence is recorded for 60 sec (excitation wavelength is […] and emission wavelength 540 nm) using the FLIPR 3 instrument.
(§5) The potency, efficacy and selectivity of the muscarinic compounds were evaluated by screening the compound activity across the whole family (M1 to M5 cells). Compounds were also screened for activity on other proteins such as other GPCRs and ion channels to determine selectivity on M4 receptors.
For orientation: Calcium flux is commonly read through the fluorescence of an indicator in the cells.

Another assay has as its target T2, M4 muscarinic receptor (Homo sapiens, UniProt P08173).
T2 construct: expressed in transfected cells; host or cells: CHO (M4-CHO)
T2 sequence (P08173 1-479): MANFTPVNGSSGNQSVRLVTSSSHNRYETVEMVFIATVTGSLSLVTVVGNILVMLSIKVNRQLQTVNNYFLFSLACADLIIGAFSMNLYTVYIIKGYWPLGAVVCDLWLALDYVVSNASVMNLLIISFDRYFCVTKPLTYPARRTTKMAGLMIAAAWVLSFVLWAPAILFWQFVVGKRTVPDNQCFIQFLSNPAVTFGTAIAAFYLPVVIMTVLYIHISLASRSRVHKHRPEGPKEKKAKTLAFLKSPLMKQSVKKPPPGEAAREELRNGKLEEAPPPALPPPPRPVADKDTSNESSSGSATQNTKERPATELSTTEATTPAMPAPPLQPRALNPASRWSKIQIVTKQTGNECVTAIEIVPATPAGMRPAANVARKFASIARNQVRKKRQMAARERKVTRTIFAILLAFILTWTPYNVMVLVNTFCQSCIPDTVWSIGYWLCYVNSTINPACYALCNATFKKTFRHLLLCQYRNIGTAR
The assay is described as follows: Functional mobilization of intracellular calcium (FLIPR) in CHO cells expressing M4. To be noted: for EC50: CHO cells expressing M4, FLIPR calcium; for Emax: CHO; for M4 Activity: CHO cells expressing M4, FLIPR calcium assay. As for the experimental part:
as §1, §2, §3, §4, §5

A further assay deals with T3, M1 muscarinic receptor (Homo sapiens, UniProt P11229).
T3 construct: expressed in transfected cells; host or cells: CHO (M1-CHO)
T3 sequence (P11229 1-460): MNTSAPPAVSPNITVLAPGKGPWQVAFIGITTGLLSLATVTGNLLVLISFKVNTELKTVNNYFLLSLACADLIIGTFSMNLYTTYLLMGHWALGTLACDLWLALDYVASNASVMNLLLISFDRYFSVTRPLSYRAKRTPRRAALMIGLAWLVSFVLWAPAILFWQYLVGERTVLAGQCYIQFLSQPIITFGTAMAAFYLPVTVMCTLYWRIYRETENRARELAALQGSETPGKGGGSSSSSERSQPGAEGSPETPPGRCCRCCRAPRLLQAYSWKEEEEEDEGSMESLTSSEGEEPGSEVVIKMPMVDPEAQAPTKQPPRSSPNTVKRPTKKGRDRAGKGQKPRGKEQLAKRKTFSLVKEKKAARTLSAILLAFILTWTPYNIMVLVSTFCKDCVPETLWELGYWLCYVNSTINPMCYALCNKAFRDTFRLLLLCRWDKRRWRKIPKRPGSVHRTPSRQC
The assay can be described thus: Functional mobilization of intracellular calcium (FLIPR) in CHO cells expressing M1. As to conditions: for EC50: CHO cells expressing M1, FLIPR calcium; for Emax: CHO; for M1 Activity: CHO cells expressing M1, FLIPR calcium assay. As for the experimental part: as §1, §2, §3, §4, §5

The target in the next assay is T4, M3 muscarinic receptor (Homo sapiens, UniProt P20309).
T4 construct: expressed in transfected cells; host or cells: CHO (M3-CHO)
The assay can be described thus: Functional mobilization of intracellular calcium (FLIPR) in CHO cells expressing M3. As to conditions: for EC50: CHO cells expressing M3, FLIPR calcium; for Emax: CHO. As for the experimental part:
as §1, §2, §3, §4, §5

The mark [1] stands for this setting: 100% = maximum response obtained with the Carbachol control, read-out: M2 Efficacy.
Where [2] appears, read: 100% = maximum response obtained with the Carbachol control, read-out: M4 Efficacy.
The mark [3] stands for this setting: 100% = maximum response obtained with the Carbachol control, read-out: M1 Efficacy.
[4] abbreviates: 100% = maximum response obtained with the Carbachol control, read-out: M3 Efficacy.
Where [5] appears, read: 100% efficacy = maximum response obtained with the Carbachol control.

T4 sequence (P20309 whole entry): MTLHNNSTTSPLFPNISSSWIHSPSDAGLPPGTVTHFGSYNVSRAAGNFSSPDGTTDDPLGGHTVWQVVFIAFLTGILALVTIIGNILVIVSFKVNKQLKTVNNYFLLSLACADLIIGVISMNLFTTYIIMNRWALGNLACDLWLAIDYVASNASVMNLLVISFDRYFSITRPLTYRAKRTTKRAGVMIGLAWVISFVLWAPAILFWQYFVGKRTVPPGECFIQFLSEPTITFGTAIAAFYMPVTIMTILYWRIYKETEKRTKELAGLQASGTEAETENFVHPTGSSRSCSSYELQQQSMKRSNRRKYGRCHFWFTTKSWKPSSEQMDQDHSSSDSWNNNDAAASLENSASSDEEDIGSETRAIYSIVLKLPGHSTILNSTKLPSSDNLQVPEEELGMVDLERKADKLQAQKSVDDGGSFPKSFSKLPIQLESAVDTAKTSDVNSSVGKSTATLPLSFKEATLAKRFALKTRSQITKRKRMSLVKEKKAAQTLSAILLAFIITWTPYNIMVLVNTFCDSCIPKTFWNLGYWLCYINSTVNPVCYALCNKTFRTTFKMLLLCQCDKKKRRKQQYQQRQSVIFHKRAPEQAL

The EC50 is the concentration at which the effect is half-maximal. As to `CCC(CC)N1CCC2(CC[C@H](NC(C)=O)c3ccccc32)CC1` [Compound No. 61, (S)N-(1′-(pentan-3-yl)-3,4-dihydro-2H-spiro[naphthalene-1,4′-piperidine]-4-yl)acetamide], the EC50 on M2 muscarinic receptor, on M4 muscarinic receptor, at M1 muscarinic receptor and at M3 muscarinic receptor was more than 5 µM in each case. Also, the Emax was less than 25% on M2 muscarinic receptor (setting [1]), 25 to 100% on M4 muscarinic receptor (setting [2]), 25 to 100% on M1 muscarinic receptor (setting [3]) and less than 25% on M3 muscarinic receptor (setting [4]).

`CC(=O)N[C@H]1CCC2(CCN(CC(=O)C(C)(C)C)CC2)c2ccccc21` [Compound No. 130, (S)-N-(1′-(3,3-dimethyl-2-oxobutyl)-3,4-dihydro-2H-spiro[naphthalene-1,4′-piperidine]-4-yl)acetamide]: the EC50 on M2 muscarinic receptor was more than 5 µM; at M4 muscarinic receptor it was less than 2 µM; on M1 muscarinic receptor, 2 to 5 µM; on M3 muscarinic receptor it was more than 5 µM. For the same molecule, the Emax at M2 muscarinic receptor (setting [1]) is less than 25%; on M4 muscarinic receptor (setting [2]) it was 25 to 100%; at M1 muscarinic receptor (setting [3]) it was 25 to 100%; at M3 muscarinic receptor (setting [4]), less than 25%.

With `CC(=O)N[C@H]1CCC2(CCN(CCC(C)(C)C)CC2)c2ccccc21` [Compound No. 190, (S)-N-(1′-(3,3-dimethylbutyl)-3,4-dihydro-2H -spiro[naphthalene-1,4′-piperidine]-4-yl)acetamide], the “M2 Activity” value on M2 muscarinic receptor is “+++ (activity was measured to be less than 2.0 μM)”. Besides, the Emax on M2 muscarinic receptor (setting [5]) was 25 to 100%; on M4 muscarinic receptor (setting [5]) it was 25 to 100%; at M1 muscarinic receptor (setting [5]), 25 to 100%; on M3 muscarinic receptor (setting [5]), less than 25%. The “M4 Activity” value on M4 muscarinic receptor is “+++ (activity was measured to be less than 2.0 μM)”. For the same molecule, at M1 muscarinic receptor, the “M1 Activity” value was “+++ (activity was measured to be less than 2.0 μM)”. Besides, the “M3 Activity” value at M3 muscarinic receptor (CHO cells expressing M3, FLIPR calcium assay) is “+ (activity was measured to be greater than 5.0 μM)”.

Regarding `CC(C)(C)CCN1CCC2(CC[C@H](NS(C)(=O)=O)c3ccccc32)CC1` [compound 1], the EC50 was 2 to 5 µM at M2 muscarinic receptor, less than 2 µM on M4 muscarinic receptor, less than 2 µM on M1 muscarinic receptor and more than 5 µM at M3 muscarinic receptor. Also, the Emax on M2 muscarinic receptor (setting [1]) was less than 25%; on M4 muscarinic receptor (setting [2]) it was 25 to 100%; on M1 muscarinic receptor (setting [3]), 25 to 100%; at M3 muscarinic receptor (setting [4]) it was less than 25%.

For `Cc1cc(C(=O)N[C@H]2CCC3(CCN(CCC(C)(C)C)CC3)c3cc(F)ccc32)nn1C` [compound 2], the EC50 at M2 muscarinic receptor is less than 2 µM; on M4 muscarinic receptor, less than 2 µM; at M1 muscarinic receptor, less than 2 µM; at M3 muscarinic receptor, more than 5 µM. Further, the Emax at M2 muscarinic receptor (setting [1]) is 25 to 100%; on M4 muscarinic receptor (setting [2]), 25 to 100%; on M1 muscarinic receptor (setting [3]), 25 to 100%; at M3 muscarinic receptor (setting [4]) it was less than 25%.

For the molecule `CC(C)(C)CCN1CCC2(CC[C@@H](NC(=O)C3CC3)c3ccccc32)CC1` [compound 3], the concentration giving a half-maximal response (EC50) at M2 muscarinic receptor was more than 5 µM; on M4 muscarinic receptor it was less than 2 µM; at M1 muscarinic receptor, more than 5 µM; on M3 muscarinic receptor, more than 5 µM. Also, the Emax is less than 25% on M2 muscarinic receptor (setting [1]), 25 to 100% on M4 muscarinic receptor (setting [2]), less than 25% at M1 muscarinic receptor (setting [3]) and less than 25% on M3 muscarinic receptor (setting [4]).

As for `CCCCN1CCC2(CC[C@H](NC(C)=O)c3ccccc32)CC1` [compound 4], the EC50 is more than 5 µM on M2 muscarinic receptor, 2 to 5 µM at M4 muscarinic receptor, 2 to 5 µM at M1 muscarinic receptor and more than 5 µM at M3 muscarinic receptor. For the same molecule, the Emax at M2 muscarinic receptor (setting [1]) is less than 25%; on M4 muscarinic receptor (setting [2]), 25 to 100%; on M1 muscarinic receptor (setting [3]) it was 25 to 100%; on M3 muscarinic receptor (setting [4]) it was less than 25%.

Turning to `CCC(=O)N1CCCCC1C(=O)N[C@@H]1CCC2(CCN(CCC(C)(C)C)CC2)c2ccccc21` (stereo partly shown) [compound 5], the EC50 is 2 to 5 µM on M2 muscarinic receptor, less than 2 µM at M4 muscarinic receptor, 2 to 5 µM on M1 muscarinic receptor and more than 5 µM at M3 muscarinic receptor. For the same molecule, the Emax is less than 25% on M2 muscarinic receptor (setting [1]), 25 to 100% on M4 muscarinic receptor (setting [2]), less than 25% at M1 muscarinic receptor (setting [3]) and less than 25% at M3 muscarinic receptor (setting [4]).

As for `C[C@H](N[C@H]1CC2(CCN(C(=O)OC(C)(C)C)CC2)c2ccccc21)c1ccccc1` [compound 275], at M2 muscarinic receptor, the “M2 Activity” value is “+ (activity was measured to be greater than 5.0 μM)”. Besides, the Emax at M2 muscarinic receptor (setting [5]), at M4 muscarinic receptor (setting [5]) and on M1 muscarinic receptor (setting [5]) was less than 25% throughout. Also, the “M4 Activity” value at M4 muscarinic receptor is on record as “+ (activity was measured to be greater than 5.0 μM)”. In addition, the “M1 Activity” value at M1 muscarinic receptor was “+ (activity was measured to be greater than 5.0 μM)”.

Values taken from patent publication US8003660B2, “Modulators of muscarinic receptors” (Vertex Pharmaceuticals Incorporated, priority 2006, dated 2011).
